What was measured:
[1] = target: T1, EGF-R Kinase (recombinant enzyme) (Homo sapiens, UniProt P00533); assay: Inhibition of Epidermal Growth Factor Receptor Kinase (EGF-R) using recombinant enzyme; assay type: biochemical; conditions: RR-SRC peptide substrate, (a) = average of two tests
T1 construct: EGFR cDNA encoding amino acids 645 - 1186 preceded by Met-Ala-(His)6; made in house; host or cells: Sf9 insect cells, recombinant baculovirus vHcEGFR52
Description: Representative test compounds are evaluated in a standard pharmacological test procedure to measure their ability to inhibit the phosphorylation of the tyrosine residue of a peptide substrate catalyzed by the enzyme epidermal growth factor receptor kinase. […] The enzyme used in this assay is the His-tagged cytoplasmic domain of EGFR. […] Sf9 cells in 100 mm plates are infected at a multiplicity of infection of 10 pfu/cell and cells are harvested 48 h post infection. A cytoplasmic extract is prepared using 1% Triton X-100 and applied to Ni-NTA column. After washing the column with 20 mM imidazole, HcEGFR is eluted with 250 mM imidazole (in 50 mM Na2HPO4, pH 8.0, 300 mM NaCl). Fractions collected are dialyzed against 10 mM HEPES, pH 7.0, 50 mM NaCl, 10% glycerol, 1ug/mL antipain and leupeptin and 0.1 mM Pefabloc SC. The protein is frozen in dry ice/methanol and stored -70°C.
Test compounds are made into 10 mg/mL stock solutions in 100% dimethylsulfoxide (DMSO). Prior to experiment, stock solutions are diluted to 500 uM with 100% DMSO and then serially diluted to the desired concentration with HEPES buffer (30 mM HEPES pH 7.4).
For the enzyme reaction, 10 uL of each inhibitor (at various concentrations) are added to each well of a 96-well plate. To this is added 3 uL of enzyme (1:10 dilution in 10mM HEPES, pH 7.4 for final conc. of 1:120). This is allowed to sit for 10 min on ice and is followed by the addition of 5 ul peptide (80 uM final conc.), 10ul of 4X Buffer containing 50 mM HEPES (pH 7.4), 200 mM Na3VO4, 40mM MnCl2, 80 uM ATP, 0.25 uL ^33P-ATP (>2500 Ci/mmol; Amersham) and 12 uL H2O. The reaction is allowed to run for 90 min at room temperature and is followed by spotting the entire volume onto precut P81 filter papers. The filter discs are washed 2X with 0.5% phosphoric acid and radioactivity is measured using a liquid scintillation counter.
The % inhibition of the test compound is determined for at least three different concentrations and the IC50 value is evaluated from the dose response curve. […] CPM(control) is in units of counts per minute and is a number expressing the amount of radiolabled ATP (γ-^33P) incorporated into the RR-SRC peptide substrate by the enzyme after 90 minutes at room temperature in the absence of test compound as measured by liquid scintillation counting. The CPM values are corrected for the background counts produced by ATP in the absence of the enzymatic reaction.

[2] = target: T2, Raf-1 (c-Raf) (Homo sapiens, UniProt P04049); assay: Raf1 kinase cascade assay procedure; assay type: biochemical
T2 construct: Sf9 insect cell lysate containing full length 6his-tagged recombinant human c-Raf; host or cells: c-Raf: Sf9 insect cell lysate; MEK1 and MAPK: E. coli
T2 sequence (P04049 whole entry): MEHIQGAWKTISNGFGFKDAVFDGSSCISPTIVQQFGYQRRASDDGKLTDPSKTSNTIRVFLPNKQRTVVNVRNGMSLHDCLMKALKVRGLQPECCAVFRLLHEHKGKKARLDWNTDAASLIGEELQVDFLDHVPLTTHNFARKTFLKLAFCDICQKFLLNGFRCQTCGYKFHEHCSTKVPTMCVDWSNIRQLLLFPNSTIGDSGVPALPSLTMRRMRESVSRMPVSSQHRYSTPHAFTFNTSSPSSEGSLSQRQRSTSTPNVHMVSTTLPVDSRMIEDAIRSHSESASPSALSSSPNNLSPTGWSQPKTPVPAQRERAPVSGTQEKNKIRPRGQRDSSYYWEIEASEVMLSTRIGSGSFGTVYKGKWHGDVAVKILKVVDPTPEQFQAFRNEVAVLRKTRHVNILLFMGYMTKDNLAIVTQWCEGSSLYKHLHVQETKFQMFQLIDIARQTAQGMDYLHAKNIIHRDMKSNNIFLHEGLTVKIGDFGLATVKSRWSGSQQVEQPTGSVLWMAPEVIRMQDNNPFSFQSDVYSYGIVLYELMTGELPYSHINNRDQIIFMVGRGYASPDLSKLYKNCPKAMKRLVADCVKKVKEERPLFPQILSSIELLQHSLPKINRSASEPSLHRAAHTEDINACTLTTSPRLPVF

T1 sequence (P00533 669-1210): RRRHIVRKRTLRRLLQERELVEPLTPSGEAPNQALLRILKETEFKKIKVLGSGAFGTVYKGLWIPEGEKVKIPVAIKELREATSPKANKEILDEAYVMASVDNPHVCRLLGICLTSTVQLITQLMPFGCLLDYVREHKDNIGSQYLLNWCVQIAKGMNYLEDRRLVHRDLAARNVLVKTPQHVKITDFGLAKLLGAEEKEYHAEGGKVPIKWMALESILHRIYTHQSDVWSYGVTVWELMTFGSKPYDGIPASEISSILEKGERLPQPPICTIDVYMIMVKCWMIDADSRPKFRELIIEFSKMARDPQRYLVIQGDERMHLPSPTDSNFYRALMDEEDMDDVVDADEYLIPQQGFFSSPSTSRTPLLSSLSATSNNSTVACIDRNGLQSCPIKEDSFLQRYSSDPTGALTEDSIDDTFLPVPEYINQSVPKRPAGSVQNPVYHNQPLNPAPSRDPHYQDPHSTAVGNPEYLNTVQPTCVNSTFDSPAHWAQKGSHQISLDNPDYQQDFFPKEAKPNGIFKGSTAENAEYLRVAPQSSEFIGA

IC50 [1]: 5.3 nM
IC50 [2]: 660 nM
SMILES: COc1cc2cc3c(Nc4ccc(OCc5ccccc5)c(Cl)c4)c(C#N)cnc3cc2cc1OCCN1CCOCC1 [Example 218, 4-(4-Benzyloxy-3-chlorophenylamino)-7-methoxy-8-(2-morpholin-4-yl-ethoxy)benzo[g]quinoline-3-carbonitrile]
